Data as given in US20100041089A1, “IMPROVED METHOD FOR DETECTING CHEMICAL […]” (priority 2006, published 2010).

Test system: yeast genes (expressed mRNA)
Test: DNA chip measurement of expressed mRNA of yeast genes after culture with a toxic chemical substance
Format: cell-based, Saccharomyces cerevisiae S288C
Description: Yeast (Saccharomyces cerevisiae S288C (a SUC2mal mel gap2 CUP1)) were cultured at 25° C. on YPD medium (yeast extract 1%, polypeptone 2%, glucose 2%). One of toxic chemical substances was added to the cell at logarithmic growth phase, and the cell was further cultured for two hours. Cell was cultured without any chemical substance in the same condition, and was used as a control. Concentrations of the chemical substances were defined to inhibit the growth of the yeast but not lead to death.
After the completion of cultivation, the culture was centrifuged to collect the cells. To the cells, sodium acetate buffer (50 mM sodium acetate, 10 mM EDTA, 1% SDS) was added, and the mixture was shaken at 65° C. for five minutes, followed by returning to room temperature, and obtaining the supernatant, which procedure was repeated two times. To the supernatant, ½ amount of a solution of phenol/chloroform (1:1) was added, and the mixture was centrifuged to give a supernatant, an equal amount of chloroform was added, and the mixture was centrifuged to give a supernatant. To the supernatant, an equal amount of isopropanol containing 0.3 M sodium acetate was added, and the mixture was allowed to stand at room temperature for 30 minutes, after which the mixture was centrifuged to give sediment of the whole RNAs. Seventy % ethanol was added to the sediment, and the mixture was again centrifuged to give sediment, which was then dried and dissolved in water. mRNA was isolated from the whole RNAs as followings. In view of the fact that a poly A chain is attached to the 3′ terminus of mRNA, a polynucleotide having a poly T structure which was immobilized on the surface of latex beads was used to trap the mRNA, and then the mRNA was washed and eluted with spine column (Oligotex-dT30<Super>mRNA Purification Kit, Takara). Reverse transcription of the mRNA was conducted with a reverse transcriptase (Super Script II Reverse Transcriptase; catalogue No. 18064-014, GibcoBRL) using fluorescence-labeled nucleotides to give cDNAs that were introduced with Cy3-dUTP or Cy5-dUTP during the reverse transcription.
The labeled cDNAs were dissolved in TE buffer (10 mM Tris-HCl/1 mM EDTA, pH 8.0), and the solution was dropped on the DNA chip containing the whole genes of yeast (DNA Chip Research Inc. Japan) so that the cDNAs were hybridized on the DNA chip at 65° C. for over 12 hours. The fluoresces intensity of the DNA chip was read with a scanner, and the ratio relative to the fluorescence intensity resulting from the absence of chemical substance was estimated as the following, which is shown in Tables 1 to 9.
In the Tables, “Intensity” indicated in the rightmost column is a value of the level of expressed mRNA of each gene in control cells as divided by the average level of the expressions of the whole genes. A gene of which mRNA level is lower in control, and is higher in cases of addition of chemical substance, is especially useful in the detection of toxic substances.
Here, when a ratio of an amount of mRNA expressed in the presence of the chemical substance to an amount of mRNA expressed in the absence of the chemical substance is two or more, then it is considered significant.

## CCCCCCCCCCCCOS(=O)(=O)[O-].[Na+] [(18), Sodium lauryl sulfate]
Yeast gene YNL092W, cultured two hours with substance
  The level of expressed mRNA in the presence of chemical substance/The level of expressed mRNA in the absence of chemical substance: 1.6
Yeast gene YNL115C, cultured two hours with substance
  The level of expressed mRNA in the presence of chemical substance/The level of expressed mRNA in the absence of chemical substance: 2.6
Yeast gene YNL156C, cultured two hours with substance
  The level of expressed mRNA in the presence of chemical substance/The level of expressed mRNA in the absence of chemical substance: 1.9
Yeast gene YNL190W, cultured two hours with substance
  The level of expressed mRNA in the presence of chemical substance/The level of expressed mRNA in the absence of chemical substance: 0.8
Yeast gene YNL208W, cultured two hours with substance
  The level of expressed mRNA in the presence of chemical substance/The level of expressed mRNA in the absence of chemical substance: 1.0
Yeast gene YNL211C, cultured two hours with substance
  The level of expressed mRNA in the presence of chemical substance/The level of expressed mRNA in the absence of chemical substance: 6.8
Yeast gene YNL234W, cultured two hours with substance
  The level of expressed mRNA in the presence of chemical substance/The level of expressed mRNA in the absence of chemical substance: 1.0
Yeast gene YNL281W, cultured two hours with substance
  The level of expressed mRNA in the presence of chemical substance/The level of expressed mRNA in the absence of chemical substance: 0.9
Yeast gene YNL300W, cultured two hours with substance
  The level of expressed mRNA in the presence of chemical substance/The level of expressed mRNA in the absence of chemical substance: 0.8
Yeast gene YNL305C, cultured two hours with substance
  The level of expressed mRNA in the presence of chemical substance/The level of expressed mRNA in the absence of chemical substance: 1.6
Yeast gene YNR064C, cultured two hours with substance
  The level of expressed mRNA in the presence of chemical substance/The level of expressed mRNA in the absence of chemical substance: 1.9
Yeast gene YNR068C, cultured two hours with substance
  The level of expressed mRNA in the presence of chemical substance/The level of expressed mRNA in the absence of chemical substance: 1.0
Yeast gene YOL032W, cultured two hours with substance
  The level of expressed mRNA in the presence of chemical substance/The level of expressed mRNA in the absence of chemical substance: 1.8
Yeast gene YOL036W, cultured two hours with substance
  The level of expressed mRNA in the presence of chemical substance/The level of expressed mRNA in the absence of chemical substance: 0.9
Yeast gene YOL047C, cultured two hours with substance
  The level of expressed mRNA in the presence of chemical substance/The level of expressed mRNA in the absence of chemical substance: 1.0
Yeast gene YOL071W, cultured two hours with substance
  The level of expressed mRNA in the presence of chemical substance/The level of expressed mRNA in the absence of chemical substance: 2.0
Yeast gene YOL073C, cultured two hours with the chemical substance
  The level of expressed mRNA in the presence of chemical substance/The level of expressed mRNA in the absence of chemical substance: 1.2
Yeast gene YOL082W, cultured two hours with substance
  The level of expressed mRNA in the presence of chemical substance/The level of expressed mRNA in the absence of chemical substance: 2.5
Yeast gene YOL083W, cultured two hours with substance
  The level of expressed mRNA in the presence of chemical substance/The level of expressed mRNA in the absence of chemical substance: 3.2
Yeast gene YOL117W, cultured two hours with substance
  The level of expressed mRNA in the presence of chemical substance/The level of expressed mRNA in the absence of chemical substance: 1.4
Yeast gene YOL131W, cultured two hours with substance
  The level of expressed mRNA in the presence of chemical substance/The level of expressed mRNA in the absence of chemical substance: 0.9
Yeast gene YOL150C, cultured two hours with substance
  The level of expressed mRNA in the presence of chemical substance/The level of expressed mRNA in the absence of chemical substance: 2.2
Yeast gene YOL162W, cultured two hours with substance
  The level of expressed mRNA in the presence of chemical substance/The level of expressed mRNA in the absence of chemical substance: 0.9
Yeast gene YOR019W, cultured two hours with substance
  The level of expressed mRNA in the presence of chemical substance/The level of expressed mRNA in the absence of chemical substance: 2.8
Yeast gene YOR161C, cultured two hours with the chemical substance
  The level of expressed mRNA in the presence of chemical substance/The level of expressed mRNA in the absence of chemical substance: 1.2
Yeast gene YOR173W, cultured two hours with substance
  The level of expressed mRNA in the presence of chemical substance/The level of expressed mRNA in the absence of chemical substance: 3.8
Yeast gene YOR197W, cultured two hours with substance
  The level of expressed mRNA in the presence of chemical substance/The level of expressed mRNA in the absence of chemical substance: 1.5
Yeast gene YOR248W, cultured two hours with substance
  The level of expressed mRNA in the presence of chemical substance/The level of expressed mRNA in the absence of chemical substance: 0.8
Yeast gene YOR289W, cultured two hours with substance
  The level of expressed mRNA in the presence of chemical substance/The level of expressed mRNA in the absence of chemical substance: 3.9
Yeast gene YPL052W, cultured two hours with substance
  The level of expressed mRNA in the presence of chemical substance/The level of expressed mRNA in the absence of chemical substance: 1.5
Yeast gene YPL087W, cultured two hours with substance
  The level of expressed mRNA in the presence of chemical substance/The level of expressed mRNA in the absence of chemical substance: 2.7
Yeast gene YPL196W, cultured two hours with substance
  The level of expressed mRNA in the presence of chemical substance/The level of expressed mRNA in the absence of chemical substance: 2.3
Yeast gene YPL206C, cultured two hours with substance
  The level of expressed mRNA in the presence of chemical substance/The level of expressed mRNA in the absence of chemical substance: 1.9
Yeast gene YPL222W, cultured two hours with substance
  The level of expressed mRNA in the presence of chemical substance/The level of expressed mRNA in the absence of chemical substance: 0.9
Yeast gene YPL272C, cultured two hours with the chemical substance
  The level of expressed mRNA in the presence of chemical substance/The level of expressed mRNA in the absence of chemical substance: 1.2
Yeast gene YPR023C, cultured two hours with substance
  The level of expressed mRNA in the presence of chemical substance/The level of expressed mRNA in the absence of chemical substance: 1.1
Yeast gene YPR079W, cultured two hours with substance
  The level of expressed mRNA in the presence of chemical substance/The level of expressed mRNA in the absence of chemical substance: 1.5
Yeast gene YPR127W, cultured two hours with substance
  The level of expressed mRNA in the presence of chemical substance/The level of expressed mRNA in the absence of chemical substance: 1.2
Yeast gene YPR151C, cultured two hours with substance
  The level of expressed mRNA in the presence of chemical substance/The level of expressed mRNA in the absence of chemical substance: 1.4
